Reference: patent publication US20220096473A1, “METHOD FOR TREATING AN ACUTE MYELOID LEUKEMIA” (PTC THERAPEUTICS, INC., priority 2019, published 2022)

Assays:
P31-Fujioka cell line = P31-Fujioka cell line xenograft survival in immunodeficient NRG-SGM3 mice; type: in vivo, mouse; conditions: oral Compound 1 from ten days after injection, up to 34 days of treatment, n=5 mice per group, P<0.002
Experimental: FIG. 1. Shown is a survival curve for an in vivo P31-Fujioka cell line xenograft tumor […] mouse model after up to 34 days of treatment with Compound 1 vs. vehicle treated animals (n=5 mice per group, *P<0.002).
Immunodeficient mice (NRG-SGM3) were injected with the P31-Fujioka cell line. Ten days after injection, engraftment of P31 cells in mice was confirmed by flow-cytometric assessment of the human CD45 marker (data not shown). One cohort of mice was orally administered Compound 1 and an age and engraftment matched hohort was administered vehicle control.

[1] = test system: MOLM13 human AML tumor cells; assay: AML mouse model, IV-inoculated human AML tumor cells in NOD-SCID mice, survival; type: in vivo
Experimental: FIG. 3. Shown is a survival curve for an in vivo AML NSG mouse model after up to 75 days of treatment with Compound 1 vs. vehicle treated mice (n=5 in vehicle group and n=2 in Compound 1 group).
FIG. 5. Shown is a survival curve for an in vivo AML NSG mouse model after up to 80 days of treatment with a combination of Compound 1 and Compound 2 vs. mice treated with vehicle, Compound 1 alone and Compound 2 alone
The following study was conducted in a mouse model of acute myeloid leukemia (AML) based on intravenous (IV) injection of human […] into male non-obese diabetic (NOD) severe combined immunodeficiency (SID) mice. MOLT-4 cells are CD3 positive. The NOD-SCID mice were obtained from Jackson Laboratory, Bar Harbor Me.
Male NOD-SCID mice were inoculated with MOLM13 human AML tumor cells from ATCC (5×10^6 cells in 200 μL PBS) by intravenous (IV) injection of 0.2 ml/mouse. Three days after tumor inoculation, mice were randomized into four groups of five mice per group, and each group was dosed as follows once each day: (Group 1) orally administered vehicle (0.5% HPMC), (Group 2) orally administered 12.5 mg/kg of Compound 1 in HPMC, (Group 3) orally administered 10 mg/kg of Compound 2 in HPMC, and (Group 4) orally administered a combination of 12.5 mg/kg of Compound 1 and 10 mg/kg of Compound 2 in HPMC for up to 75 days.

[2] = test system: MOLT human acute lymphoblastic leukemia (ALL) tumor cells; assay: ALL mouse model, IV-inoculated MOLT human ALL tumor cells in NOD-SCID mice, survival; type: in vivo; conditions: vehicle 70 days
Experimental: FIG. 6. Shown is a survival curve for an in vivo ALL (Acute Lymphocytic Leukemia) MOLT-4 (CD3 […]) xenograft tumor NSG mouse model after up to 160 days of treatment with Compound 2 vs. vs. mice treated with vehicle, Compound 1, doxorubicin (Dox) and cytarabine (Ara-C). Under various dosing regimens.
Male NOD-SCID mice were inoculated with MOLT human acute lymphoblastic leukemia (ALL) tumor cells from ATCC (1×10^7 cells in 200 μL PBS) by intravenous (IV) injection of 0.2 ml/mouse. Seven days after tumor inoculation, mice were randomized into seven groups of five mice per group, and each group was dosed as follows: (Group 1) orally administered vehicle of 0.5% HPMC and 0.1% Tween 80 daily, (Group 2) orally administered 10 mg/kg Compound 1 twice per week, (Group 3) orally administered 10 mg/kg Compound 2 daily, (Group 4) administered 1 mg/kg doxorubicin by intraperitoneal (IP) injection once per week, (Group 5) administered 0.5 mg/kg doxorubicin by IP injection once per week, (Group 6) administered 50 mg/kg Ara-C twice per week by IP injection, and (Group 7) administered 70 mg/kg Ara-C by IP injection once per week.

[3] = test system: microtubule polymerization; assay: Mechanistic studies of microtubule polymerization; type: biochemical
Text: In addition, Compound 1 combines additively or synergistically with standard clinical regimens, yielding potent and durable cancer regression.

CALM-AF10-mediated AML = CALM-AF10-mediated AML leukemogenesis in mouse and human models; conditions: in vitro and in vivo
p53 mutant mediated AML = conditions: cited from earlier work
leukemia cell growth = conditions: mouse xenograft models; cited from earlier work

SMILES: Cc1nc2ccc(F)cc2n1-c1nc(N)c(F)c(Nc2ccc(C(F)(F)F)cc2)n1 [Compound 1, 5-fluoro-2-(6-fluoro-2-methyl-1H-benzo[d]imidazol-1-yl)-N^4-[4-(trifluoromethyl)phenyl]pyrimidine-4,6-diamine]
- latency of disease (survival curve) vs vehicle control (P31-Fujioka cell line): significantly delayed the latency of disease
- survival vs mice administered Compound 2 alone ([1]; 12.5 mg/kg Compound 1 orally once each day): survived significantly longer
- survival (prolongation of life) vs vehicle ([1]; 12.5 mg/kg orally once each day in HPMC, up to 75 days): significant prolongation of life
- maximum number of days of survival ([2]; Group 2, 10 mg/kg orally twice per week): 65 days
- microtubule polymerization [3]: inhibit microtubule polymerization
- leukemogenesis (CALM-AF10-mediated AML): impairs leukemogenesis in vitro and in vivo
- MCL-1 expression (p53 mutant mediated AML; p53 mutant mediated AML): reduced MCL-1 expression
- induction of apoptosis (p53 mutant mediated AML; patient-derived CD34+CD38low/- stem/progenitor cells): Apoptosis was induced in a p53-independent manner
- in vivo anti-leukemia activity (leukemia cell growth): inhibited leukemia cell growth in vivo while sparing normal hematopoietic cells

SMILES: Nc1ccn([C@@H]2O[C@H](CO)[C@@H](O)[C@@H]2O)c(=O)n1 [Ara-C, cytarabine]
- maximum number of days of survival ([2]; Group 6, 50 mg/kg IP twice per week): 65 days
- maximum number of days of survival ([2]; Group 7, 70 mg/kg IP once per week): 70 days

SMILES: COc1cccc2c1C(=O)c1c(O)c3c(c(O)c1C2=O)C[C@@](O)(C(=O)CO)C[C@@H]3O[C@H]1C[C@H](N)[C@H](O)[C@H](C)O1 [doxorubicin]
- maximum number of days of survival ([2]; Group 4, 1 mg/kg IP once per week): 40 days
- maximum number of days of survival ([2]; Group 5, 0.5 mg/kg IP once per week): 40 days

SMILES: COc1ccc([C@H]2c3[nH]c4ccc(Cl)cc4c3CCN2C(=O)Oc2ccc(Cl)cc2)cc1 [Compound 2, 4-chlorophenyl (S)-6-chloro-1-(4-methoxyphenyl)-1,3,4,9-tetrahydro-2H-pyrido[3,4-b]indole-2-carboxylate]
- maximum number of days of survival ([2]; Group 3, 10 mg/kg orally daily): 160 days
